Results on one compound are retold here after US11564913B2, “Compositions and methods for treating cancer” (Children's Hospital Medical Center, priority 2019, dated 2023).

Test [1] relates to active RhoA in MDA-MB-231 cells. Kind of test: Active GTPase pull-down (GST-Rhotekin RBD). The class given is cell-based, human. To be noted: 0-3 μM, 1 h. On the procedure:
FIG. 5: Cytoskeletal changes induced by IODVA1 treatment. IODVA1 inhibits lamellipodia and circular dorsal ruffle (CDR) formation in MDA-MB-231 cells and decreases Rac activation. (A) IODVA1 inhibits EGF-induced lamellipodia formation in MDA-MB-231 cells. MDA-MB-231 cells were plated on fibronectin-coated coverslips, serum starved for 4 h, incubated with the indicated concentrations of IODVA1 for 1 h, then EGF (50 ng/mL) stimulated, fixed and stained with Phalloidin Alexa Fluor 594 (F-Actin, pseudocolored red) and DAPI (nuclei, pseudocolored blue). […] The percentage of cells with CDRs was counted as the number of cells with CDRs normalized to the total number of cells in the field. Around 150 cells were counted per condition per experiment. Cells with multiple CDRs were counted only once. […] Levels of active Rac (RacGTP, % of control), active Cdc42 (Cdc42GTP, % of control) and active RhoA (RhoAGTP, % of control) were quantified using ImageJ and ImageLab and show combined data as mean±s.e.m. from at least 3 independent experiments. […]
To confirm that IODVA1 interferes with Rac activation, applicants checked the levels of active Rac and its downstream effector PAK1/2. MDA-MB-231 cells were incubated with IODVA1 (0-3 μM) for 1 h and levels of GTP-bound active Rac were measured by GST-PAK-GBD pull-downs and quantified (FIG. 5C). […]

Test [2] has as its system H2122 lung cancer xenografts. Kind of test: H2122 xenograft mouse model. The format is in vivo, mice. The text has this:
FIG. 8: IODVA1 inhibits tumor growth of human breast and lung cancer xenografts. […] (B) Tumors were also stained for Ki67 as a proliferation marker (top panel). […] (C) Quantification of Ki67-positive and cleaved caspase 3-positive cells of tumors shown in (B). […] Animals began treatment when tumors became detectable at 10 days post-injection (*, p<0.05). […] IODVA1 treated tumors also had fewer proliferating cells compared to control vehicle treated animals, as determined by immunohistochemical staining for Ki67 (bottom) and increased intratumoral fibrosis. Representative images were taken at 100× magnification, scale bar is 200 μm. (F) Quantification of Ki67+ cells in control and IODVA1 treated tumors shown in (E).
The lung cancer mouse model was generated by injecting the lung cancer H2122 cells at the right and left flanks of NSG mice. These cells harbor the KRAS^G12C mutation and form aggressive tumors. Mice were treated with IODVA1 or with vehicle control every other day for 14 days. […]
Human lung cancer cell line NCI-H2122 (ATCC) harboring biallelic KRAS^G12C mutations were cultured in RPMI-1640 supplemented with 10% FBS. […] Tumor size was measured using digital calipers and tumor volume estimated using the formula (length×width^2)/2. […] A minimum of 20 random fields were used for quantification. […]

`OC1(c2ccccn2)N=C(Nc2nc3ccccc3[nH]2)N=C1c1ccccn1` (stereo not drawn) [IODVA1, (Z)-2-((1H-benzo[d]imidazol-2-yl)imino)-4,5-di(pyridin-2-yl)-2,5-dihydro-1H-imidazol-5-ol]: the “levels of active RhoA” value in test [1] is reported as “not affected”. The tumor volume result in test [2] (IP 250 μl of 1 mM every other day for 14 days) is given as “significant decrease”. The “number of Ki67-positive tumor cells” value in test [2] (IP every other day for 14 days) is on record as “significant decrease”.
